Measurements taken from patent publication US7264935B2, “Potassium-dependent sodium-calcium exchanger” (Astellas Pharma Inc., priority 2002, dated 2007).
pIC50: −log10 of the molar value.

How the values were obtained:
Format in all cases: cell-based
[1] = system: human peripheral polymorphonuclear leukocytes (PMNs); test: fMLP-stimulated migration test of PMNs in Transwell chemotaxis chamber; conditions: for Number of migrating cells (relative value): 100 nmol/L fMLP, 37° C., 1 hour, DMSO = 100, average ± SD of three experiments; for migration of PMNs (result in words): 10, 30 and 100 μmol/L, fMLP-stimulated
Experimental: The compounds obtained in Example 6 were evaluated using human peripheral polymorphonuclear leukocytes (PMNs). A blood sample was obtained by collecting blood from a healthy adult. A ficoll solution for separation (mono-poly resolving medium; Dainippon Pharmaceutical) was poured into each centrifuge tube, and a fresh blood component was laid on the ficoll solution. Centrifugation was carried out at 400×g at room temperature for 30 minutes to separate the upper layer (monocytes), the intermediate layer (PMNs), and the precipitate (erythrocytes). Each layer was collected in such a way that they were not mixed with each other, suspended in a phosphate buffered saline (PBS), and recentrifuged. Each collected layer was suspended in an RPMI1640 medium containing 0.2% bovine serum albumin (BSA), and used in the following experiment after counting the number of cells. A portion of the resulting PMN component was stained by a hematoxylin and eosin stain to confirm that neutrophils (approximately 95%) and eosinophils (approximately 5%) were contained.
A migration test was carried out using a 24-well disposable chemotaxis chamber Transwell 3 μm; Corning). Each test solution in which compound A or B (final concentration=10 μmol/L, 30 μmol/L, and 100 μmol/L) were contained in a medium (0.2% BSA, RPMI1640 medium) containing 100 nmol/L formylmethionyl-leucinyl-phenylalanine (fMLP) was prepared, and 1 mL of each test solution was added to each of the lower wells. The collected PMNs were added to each of the upper wells (2.0×10^6 cells/well; 0.2 mL) and incubated at 37° C. for 1 hour. The numbers of cells which migrated to the lower wells were counted by a hemacytometer. The test was independently repeated three times.
Each value shown in Table 1 is a relative value when the value obtained in the case of using DMSO instead of the test compounds is regarded as 100. Further, each value shown in Table 1 is an average and a standard deviation (SD) on the basis of three independent experiments.

[2] = target: T1, novel potassium-dependent sodium-calcium exchanger consisting of the amino acid sequence of SEQ ID NO: 4 (Homo sapiens, UniProt Q8NFF2); test: 45Ca uptake screening for inhibition of potassium-dependent sodium-calcium exchange activity in stable-expression Dede cells (SEQ ID NO: 4); conditions: exchanger of SEQ ID NO: 4; conditions of Example 6
T1 construct: expressed in transfected cells
T1 sequence (Q8NFF2 39-603 isoform Q8NFF2-3): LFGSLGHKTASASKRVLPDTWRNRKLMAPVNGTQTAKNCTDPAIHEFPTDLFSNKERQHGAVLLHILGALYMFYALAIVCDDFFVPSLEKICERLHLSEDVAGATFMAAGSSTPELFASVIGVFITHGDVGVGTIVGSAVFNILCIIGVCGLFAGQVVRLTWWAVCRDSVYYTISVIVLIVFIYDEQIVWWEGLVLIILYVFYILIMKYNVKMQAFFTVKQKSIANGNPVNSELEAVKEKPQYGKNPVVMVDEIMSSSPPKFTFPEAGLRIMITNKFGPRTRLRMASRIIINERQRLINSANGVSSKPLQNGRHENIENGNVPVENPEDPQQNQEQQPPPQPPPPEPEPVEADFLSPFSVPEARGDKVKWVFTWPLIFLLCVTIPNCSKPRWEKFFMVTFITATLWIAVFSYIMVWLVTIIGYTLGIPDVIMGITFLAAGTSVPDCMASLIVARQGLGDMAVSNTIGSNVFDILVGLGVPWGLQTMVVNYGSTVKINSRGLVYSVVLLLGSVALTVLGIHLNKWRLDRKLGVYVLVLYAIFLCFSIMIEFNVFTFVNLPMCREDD
Experimental: (§1) Sodium was incorporated into cells by changing the medium to an extracellular solution containing monensin [i.e., a solution containing 0.01 mmol/L monensin, 1 mmol/L ouabain, 146 mmol/L NaCl, 4 mmol/L KCl, 0.1 mmol/L CaCl2, 2 mmol/L MgCl2, 10 mmol/L glucose, 0.1% bovine serum albumin, and 10 mmol/L HEPES-Tris (pH=7.4)] and incubating the cells at 37° C. for 30 minutes. […]
(§2) The treated cells were washed with a washing solution containing 120 mmol/L choline chloride, 10 mmol/L LaCl3, and 10 mmol/L HEPES-Tris (pH=7.4) to remove calcium ions not incorporated, and then an intracellular calcium ion radioactivity was measured and analyzed by a liquid scintillation counter. In the HEK293 cells, Dede cells, or CHO-dhfr^− cells expressing the polypeptide consisting of the amino acid sequence of SEQ ID NO: 2 or 4, a higher radioactivity of approximately two times that obtained in the case of the extracellular solution A was measured when using the extracellular solution B (extracellular solution in which sodium was replaced with choline). Further, higher radioactivities of approximately five times and approximately ten times that obtained in the case of the extracellular solution A were measured when using the extracellular solutions C and D (extracellular solution containing potassium), respectively. […]

[3] = target: T2, novel potassium-dependent sodium-calcium exchanger consisting of the amino acid sequence of SEQ ID NO: 2 (Homo sapiens, UniProt Q8NFF2); test: 45Ca uptake screening for inhibition of potassium-dependent sodium-calcium exchange activity in stable-expression Dede cells (SEQ ID NO: 2); conditions: exchanger of SEQ ID NO: 2; conditions of Example 6
T2 construct: expressed in transfected cells
T2 sequence (Q8NFF2 39-622): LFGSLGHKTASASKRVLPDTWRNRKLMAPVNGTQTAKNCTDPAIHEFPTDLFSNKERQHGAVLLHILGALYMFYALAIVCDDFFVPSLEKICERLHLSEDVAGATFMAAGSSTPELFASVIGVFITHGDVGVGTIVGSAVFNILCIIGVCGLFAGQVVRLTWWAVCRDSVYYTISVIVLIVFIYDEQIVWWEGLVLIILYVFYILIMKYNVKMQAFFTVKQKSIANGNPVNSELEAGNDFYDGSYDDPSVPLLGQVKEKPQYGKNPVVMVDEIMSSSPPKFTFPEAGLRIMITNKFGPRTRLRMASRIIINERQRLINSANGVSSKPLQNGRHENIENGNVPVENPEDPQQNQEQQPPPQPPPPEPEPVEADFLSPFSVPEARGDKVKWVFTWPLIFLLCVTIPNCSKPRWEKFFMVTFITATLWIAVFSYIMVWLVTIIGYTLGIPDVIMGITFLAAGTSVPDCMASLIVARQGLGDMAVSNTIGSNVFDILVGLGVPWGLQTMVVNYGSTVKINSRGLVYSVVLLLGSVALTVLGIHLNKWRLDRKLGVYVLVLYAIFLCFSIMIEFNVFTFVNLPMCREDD
Experimental: as §1, §2

pIC50 [2]	pIC50 [3]	SMILES	Number of migrating cells (relative value) ([1]; 10 μmol/L compound)	Number of migrating cells (relative value) ([1]; 30 μmol/L compound)	Number of migrating cells (relative value) ([1]; 100 μmol/L compound)	migration of PMNs (result in words) [1]
4.23	4.69	N/C(=N\C(=O)c1nc(Cl)c(N)nc1N)NCc1ccc(Cl)c(Cl)c1 [compound B, 3′,4′-dichlorobenzamil]	100.68 ± 7.27	72.90 ± 15.85	44.58 ± 32.82	inhibited the migration of PMNs dose-dependently
4.46	4.80	CS(=O)(=O)O.N=C(N)SCCc1ccc(OCc2ccc([N+](=O)[O-])cc2)cc1 [compound A, 2-[2-[4-(4-nitrobenzyloxy)phenyl]ethyl]isothiourea methanesulfonate]	78.18 ± 25.93	29.50 ± 26.16	16.84 ± 10.78	inhibited the migration of PMNs dose-dependently
